Entries after “also recorded” stand apart in the source; their conditions may differ.
Assays:
protease in LAL [1] = assay: Endotoxicity, chromogenic LAL test; format: biochemical, Limulus polyphemus; conditions: ng LPS per ng product, n = 1-10
Description: (§1) The endotoxicity and the biological activity of disaccharide A (example 1) and of disaccharide B (example 2) were determined and compared to that of lipopolysaccharide originating from Escherichia coli O111:B4 (Sigma, Product No. L3024), lipid A (Sigma, Product No. L5399; used as a starting material in example 4), and 3-O-deacylated lipid A originating from lipid A of Escherichia coli F583 (prepared as in the comparative example), but without purification by HPLC.
(§2) The endotoxicity was determined in the Limulus amoebocyte lysate (LAL) test. This test is based on the observation that endotoxins induce coagulation of the hemolymph of Limulus polyphemus.
(§3) The endotoxicity was also measured in the chromogenic test, in which the activation of a protease in LAL by LPS was measured using a chromogen (Ac-Ile-Glu-Ala-Arg-pNA; Bio Whittaker Kit No. 50-650U). The colour formation (liberation of pNA (p-nitroaniline)) was measured at 405 nm.
(§4) Samples were pre-incubated at 37° C. during 10 minutes and subsequently chromogen-comprising LAL was added. The time required for reaching an optical density of 0.2 at 405 nm was measured. The endotoxin activity was calculated in comparison to a reference curve obtained for LPS standards.
(§5) The results are expressed in table 3 as: ng LPS per ng product.

protease in LAL [2] = assay: Endotoxicity, chromogenic LAL test with 0.1 mg/ml bovine serum albumin; format: biochemical, Limulus polyphemus; conditions: n=4 or 6
Description: as §3, §4
The endotoxicity of the disaccharides E, F and G was determined using the chromogenic LAL test (see infra). However, instead of using 1 mg/ml bovine serum albumin, 0.1 mg/ml has been used. The results (n=4 or 6) were obtained in two series of experiments and are shown hereafter.

[3] = tested on: macrophages of C57BL/6 mice; assay: Production of interleukin-1α (IL-1α) in supernatants of macrophages, ELISA; format: cell-based
From the text: (§6) Bone marrow was collected from hip, femur and tibia of six week old male C57BL/6 mice. After homogenization of the marrow suspension in Dulbecco modified medium and centrifugation, the pellet was resuspended in Dulbecco modified medium and the cells were cultivated at a concentration of 4×10^5 cells per ml in the same medium supplemented with 30% supernatant of L-929 fibroblasts (a common source for colony stimulating factor 1 [CSF-1]) and 20% horse serum.
(§7) After 7 days the mature macrophages were collected and resuspended in Dulbecco modified medium comprising 5% foetal calf serum to a concentration of 7×10^6 cells per ml. This cell suspension was mixed 1:1, (v/v) with samples diluted in the same medium and used in the biological tests performed in microplates with 70,000 cells/well (incubation at 37° C. for 22 hours, 100% humidity and 8% CO2).
The concentration of IL-1α in the supernatants of macrophages was measured by an ELISA-test (Kit GENZYME, Intertest-1α).

[4] = tested on: macrophages of C57BL/6 mice; assay: Prostaglandin E2 (PGE2) production in supernatants of macrophages, RIA; format: cell-based
Description: Bone marrow was collected from hip, femur and tibia of six week old male C57BL/6 mice.
as §7

[5] = tested on: peritoneal carcinomatosis (Pro b cells); assay: In vivo anti-tumor activity against peritoneal carcinomatosis in BDIX rats; conditions: for Number of rats with carcinomatoses of class 0 / Number of rats with carcinomatoses of class 1 / Number of rats with carcinomatoses of class 2 / Number of rats with carcinomatoses of class 3 / Number of rats with carcinomatoses of class 4: 10 rats, 6 weeks; for Number of rats with carcinomatoses of class 0: class 0: no tumor nodules visible; for Number of rats with carcinomatoses of class 1: class 1: a few nodules less than 0.2 cm; for Number of rats with carcinomatoses of class 2: class 2: nodules too many to be counted, up to 0.5 cm; for Number of rats with carcinomatoses of class 3: class 3: tumors up to 1 cm; for Number of rats with carcinomatoses of class 4: class 4: cavity entirely invaded by tumors
Description: The in vivo biological activity of disaccharide A was investigated for anti-tumor activity against peritoneal carcinomatosis induced in BDIX rats. Pro b cells obtained according to the method of Martin (Martin, F. et al, International Journal of Cancer, Volume 32, pages 623-627 [1983]) were injected intraperitoneally in rat (10^6 cells per rat). After 10 days numerous solid nodules appear in the mesenterium in the milky spots and progressively invade the peritoneal cavity (see Lagadec, P. et al, Invasion and Metastasis, Volume 7, pages 83-95 [1987]). Hemorrhagic ascitis appeared after 4-5 weeks and all rats died within 8-12 weeks.
Immunotherapy started 14 days after injection of the tumoral Pro b cells. The treatment consisted of intraperitoneal injections of disaccharide A; doses 0.1, 0.3 and 0.8 mg/kg bodyweight. Disaccharide A was dissolved in an aqueous solution of 0.9% NaCl and 0.1% triethylamine. The rats received five injections once every 3.5 days. A control group was injected with the aqueous solution. Both groups comprised 10 rats.
6 Weeks after the injection of the tumoral cells autopsy was carried out. The extent of peritoneal carcinomatosis was evaluated blindly and the rats were classified in the order of increasing carcinomatosis.
The classification of the nodule size is as follows:
class 0: no tumor nodules visible;
class 1: a few nodules of size less than 0.2 cm;
class 2: nodules too many to be counted size up to 0.5 cm;
class 3: tumors in size up to 1 cm;
class 4: tumoral cavity entirely invaded by tumors, size a few cm.
The statistical significance of the anti-tumoral activity was calculated by the Kruskal-Wallis test (1) or (2) using variance analysis.

[6] = tested on: macrophages of C57BL/6 mice; assay: Production of TNF-α in supernatants of macrophages, ELISA; format: cell-based
From the text: as §6, §7
The concentration of TNF-α in supernatants of macrophages was determined by an ELISA test (Kit GENZYME, Factor-test mTNF-α).

[7] = tested on: Limulus amoebocyte lysate (LAL); assay: Endotoxicity, LAL gelification test; format: biochemical, Limulus polyphemus; conditions: ng LPS per ng product, n = 2-12
Description: as §1, §2
In the gelification test serial dilutions of the compound to be tested were mixed with LAL 1:1, (v/v) (Haemachem Inc., sensitivity LAL 0.06 endotoxin units/ml), and the mixture was incubated for one hour at 37° C. Then gel formation was monitored by measuring the optical density at 405 nm. The last dilution which formed a gel was determined by inverting the reaction microplate. The endotoxin activity in the samples was determined by comparison with dilutions of a lipopolysaccharide standard (1 endotoxin unit=0.1 ng LPS).
as §5

NMRI mice = assay: Acute toxicity in NMRI mice; format: in vivo; conditions: caudal vein, up to 100 mg/kg
Description: Disaccharide A was injected into the caudal vein of male and female NMRI mice (age 6-7 weeks).

[8] = highest concentration tested 500 μg/ml

Structure (SMILES): CCCCCCCCCCCC(=O)O[C@H](CCCCCCCCCCC)CC(=O)N[C@H]1[C@H](OC[C@H]2O[C@H](OP(=O)(O)O)[C@H](NC(=O)C[C@H](O)CCCCCCCCCCC)[C@@H](O)[C@@H]2O)O[C@H](CO)[C@@H](OP(=O)(O)O)[C@@H]1O [disaccharide A, 2-Deoxy-6-O-[2-deoxy-2-[(R)-3-dodecanoyloxytetradecanoylamino]-4-O-phosphono-β-D-glucopyranosyl]-2-[(R)-3-hydroxytetradecanoylamino]-α-D-glucopyranosyl dihydrogenphosphate]
- Endotoxic activity in LAL, chromogen (protease in LAL [1]): 0.0014 ± 0.0013 ng/ng
- Endotoxic activity in LAL (protease in LAL [2]): 0.000003 ± 0.000002 mg/mg
- IL-1α at concentration 500 μg/ml ([3]; 500 μg/ml): 75 ± 45 pg/mL
- minimal effective concentration ([3]; Mus musculus, Macrophage, 22 h, detection limit in the order of 15 pg/ml, read-out: IL-1α: Minimum activity detected, concentration): 16 µg/mL
- IL-1α at minimum activity detected ([3]; at the concentration of minimum activity, LPS 1.56, lipid A 50, 3-O-deacylated lipid A 160, disaccharide A 16 μg/ml): 19 ± 11 pg/mL
- IL-1α at highest concentration tested [3, 8]: 75 ± 45 pg/mL
- IL-1α production, in words ([3]; macrophages of C57BL/6 mice, comparison partly at 500 μg/ml): not significantly different; also recorded: at least as strong as by lipid A and 3-O-deacylated lipid A
- PGE2 at highest concentration inducing an activity ([4]; 500 μg/ml, detection limit of the order of 80 pg/ml): 540 ± 65 pg/mL
- PGE2 at lowest concentration inducing an activity ([4]; LPS 6.25, 3-O-deacylated lipid A 500, disaccharide A 16 μg/ml, detection limit of the order of 80 pg/ml): 80 ± 41 pg/mL
- minimal effective concentration ([4]; Mus musculus, Macrophage, 22 h, detection limit of the order of 80 pg/ml, read-out: PGE2: Lowest concentration inducing an activity): 16 µg/mL
- PGE2: Highest concentration inducing an activity ([4]; highest concentration used): 500 µg/mL
- PGE2 production, in words ([4]; macrophages of C57BL/6 mice): significantly lower than for LPS; also recorded: more active than lipid A and 3-O-deacylated lipid A
- Ascitis volume, Average ([5]; 0.1 mg/kg i.p.): 7 ± 7 ml/rat
- Ascitis volume, Limits ([5]; 0.1 mg/kg i.p.): 0-18 ml/rat
- Number of rats with carcinomatoses of class 0 ([5]; 0.1 mg/kg i.p.): 0
- Number of rats with carcinomatoses of class 1 ([5]; 0.1 mg/kg i.p.): 2
- Number of rats with carcinomatoses of class 2 ([5]; 0.1 mg/kg i.p.): 0
- Number of rats with carcinomatoses of class 3 ([5]; 0.1 mg/kg i.p.): 4
- Number of rats with carcinomatoses of class 4 ([5]; 0.1 mg/kg i.p.): 4
- Ascitis volume, Average ([5]; 0.3 mg/kg i.p.): 2 ± 6 ml/rat
- Ascitis volume, Limits ([5]; 0.3 mg/kg i.p.): 0-20 ml/rat
- Number of rats with carcinomatoses of class 0 ([5]; 0.3 mg/kg i.p.): 2
- Number of rats with carcinomatoses of class 1 ([5]; 0.3 mg/kg i.p.): 3
- Number of rats with carcinomatoses of class 2 ([5]; 0.3 mg/kg i.p.): 2
- Number of rats with carcinomatoses of class 3 ([5]; 0.3 mg/kg i.p.): 2
- Number of rats with carcinomatoses of class 4 ([5]; 0.3 mg/kg i.p.): 1
- Ascitis volume, Average ([5]; 0.8 mg/kg i.p.): 0 ± 1 ml/rat
- Ascitis volume, Limits ([5]; 0.8 mg/kg i.p.): 0-2 ml/rat
- Number of rats with carcinomatoses of class 0 ([5]; 0.8 mg/kg i.p.): 1
- Number of rats with carcinomatoses of class 1 ([5]; 0.8 mg/kg i.p.): 6
- Number of rats with carcinomatoses of class 2 ([5]; 0.8 mg/kg i.p.): 1
- Number of rats with carcinomatoses of class 3 ([5]; 0.8 mg/kg i.p.): 1
- Number of rats with carcinomatoses of class 4 ([5]; 0.8 mg/kg i.p.): 1
- Anti-tumoral effect, in words ([5]; peritoneal carcinomatosis): dose-dependent anti-tumoral effect
- TNF-α at concentration 500 μg/ml ([6]; 500 μg/ml): 530 ± 139 pg/mL
- minimal effective concentration ([6]; Mus musculus, Macrophage, 22 h, detection limit in the order of 100 pg/ml, read-out: TNF-α: Minimum activity detected, concentration): 0.16 µg/mL
- TNF α at minimum activity detected ([6]; at the concentration of minimum activity, LPS 0.006, lipid A 0.016, 3-O-deacylated lipid A 0.016, disaccharide A 0.16 μg/ml): 159 ± 43 pg/mL
- TNF-α at highest concentration tested [6, 8]: 530 ± 139 pg/mL
- TNF-α production, in words ([6]; macrophages of C57BL/6 mice): equally or more strongly than lipid A or 3-O-deacylated lipid A
- Endotoxic activity in LAL, gelification [7]: 0.003 ± 0.002 ng/ng
- Acute toxicity, deaths (NMRI mice): did not induce any death

— patent publication US6005099A, “Glucosamine disaccharides, method for their preparation, pharmaceutical composition comprising same, and their use” (priority 1993, dated 1999)
